Experimental data: patent publication US20220112225A1, “ANANDAMIDE COMPOUNDS” (priority 2019, published 2022)

How the values were obtained:
[1] = target: T1, hMfsd2a (Homo sapiens, UniProt Q8NA29); assay: In vitro Mfsd2a transport, thin layer chromatography (TLC) analysis; assay type: cell-based; settings: transfected HEK293 cells, 50 μM test compound, 1 hour, iodine and cupric acetate stain
T1 construct: expressed in transfected cells; host or cells: HEK293
T1 sequence (Q8NA29 1-530 isoform Q8NA29-2): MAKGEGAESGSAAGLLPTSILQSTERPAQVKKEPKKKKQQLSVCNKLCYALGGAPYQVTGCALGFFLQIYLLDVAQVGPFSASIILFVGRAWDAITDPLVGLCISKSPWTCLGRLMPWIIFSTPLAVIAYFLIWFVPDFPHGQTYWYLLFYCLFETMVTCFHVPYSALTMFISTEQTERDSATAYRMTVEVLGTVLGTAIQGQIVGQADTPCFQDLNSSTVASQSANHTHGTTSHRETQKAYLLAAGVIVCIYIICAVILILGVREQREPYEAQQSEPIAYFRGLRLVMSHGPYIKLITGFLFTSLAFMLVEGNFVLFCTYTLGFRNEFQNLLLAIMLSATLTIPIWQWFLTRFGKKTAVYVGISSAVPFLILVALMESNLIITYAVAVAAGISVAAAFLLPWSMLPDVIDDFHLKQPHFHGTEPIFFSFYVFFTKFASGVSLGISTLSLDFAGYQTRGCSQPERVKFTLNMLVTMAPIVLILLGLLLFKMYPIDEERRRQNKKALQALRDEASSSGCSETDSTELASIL
Protocol: (§1) The assay was conducted in a low throughput 6-well format with HEK293 cells prepared and then transfected in duplicate wells with plasmids containing either the wildtype (WT) version of hMfsd2a, the D97A mutant version, or an empty vector as control. Uptake into the ceils was assessed by both thin-layer chromatography (TLC) and ultrahigh performance liquid chromatography hyphenated mass spectrometry.
(§2) HEK293 cells were seeded at 6.25×10^5 per 6-well in 2 mL of DMEM with 10% FBS and 1% penicillin-streptomycin (P/S) media (Sigma) and incubated overnight at 37° C. in 5% CO2. Cells were checked for confluency the next morning. On a per well basis the following lipid mix was generated, 6 μL of Lipofectamine 2000 was added dropwise to 200 μL of OptiMEM, this was left to stand for 5 minutes at room temperature (RT). 1 μg of hMfsd2a WT, D97A or empty plasmid was prepared in 200 μL of OptiMEM as appropriate for each well; the Lipofectamine 2000 in OptiMEM solution was then added dropwise to a total volume of 400 μL (this can be scaled to support the number of wells/plates to be assayed). This transfection preparation was then incubated at RT for 20 minutes. DMEM with 10% FBS and no P/S media was warmed to 37° C., the HEK293 plate media was changed and the cells washed carefully with 1 mL of the warmed DMEM with 10% FBS no P/S media, 1.6 mL of the warmed DMEM with 10% FBS no P/S media was then added to each well. 400 μL of the transfection preparation was then added dropwise to each well as appropriate and the plate was gently swirled in a circular motion. The plate was then incubated overnight at 37° C. in 5% CO2.
(§3) Compound Incubation and Preparation of Analysis Samples Compound stock solutions were prepared in a 12% BSA in PBS solution such that a 40 μL spike into 2 ml, of plain DMEM would yield a concentration of 50 μM of test compound (the compound treated media). Remaining compound stock solution in 12% BSA in PBS was frozen at −20° C. to allow for media stability testing. The HEK293 6-well plate was removed from the incubator and the wells gently rinsed with 1 mL of plain DMEM that had been prewarmed to 37° C. 2 mL of the compound treated media was then added to each well. A 100 μL sample of the compound treated media was sampled to represent a T=0 h sample; 5 μL of this sample (the remainder was reserved and frozen in case of re-analysis being required) was diluted with 45 μL of DMEM and crashed with 50 μL MeCN in a 96-well plate which was sealed and kept on ice. The HEK293 6-well plate was then incubated at 37° C. in 5% CO2 for 1 hour, the plate was then removed from the incubator and a 100 μL sample of media taken from each well to represent a T=1 h sample; 5 μL of this sample (the remainder was reserved and frozen in case of re-analysis being required) was diluted with 45 μL of DMEM and crashed with 50 μL MeCN into the 96-well plate which was re-sealed and stored at −20° C. The remaining media was then removed from the HEK293 6-well plate, the wells were gently rinsed twice with 1 mL of 0.5% BSA in DMEM, the media was then removed and the 6-well plate allowed to dry completely at RT. 1 ml of 3:2 Hexane:Isopropanol (HIP) was added to each well in a fume cupboard and the plate allowed to stand for 30 minutes at RT without shaking. The HIP solution was then transferred to 2 mL Eppendorf tubes, and the process was repeated with a second 1 mL aliquot of HIP and the two aliquots combined. The HIP samples were then dried down under a nitrogen stream.
Silica gel plates were prepared in a fume cupboard by initially drawing a line 1.5 cm from the bottom edge of the plate and then drawing sample lanes with a width of 1 cm and a separation of 0.5 cm between lanes. TLC buffer for phospholipids was prepared as a 31:62:7 solvent mix of Methanol:Chloroform:Ammonium Hydroxide. Plates were pre-run in a humid chamber containing 200 mL of the TLC buffer until the solvent front was 1.5 cm from the plate edge, the plate was then allowed to dry. […]

[2] = target: T1, hMfsd2a; assay: In vitro Mfsd2a transport, UPLC-MS-MS analysis; assay type: cell-based; settings: transfected HEK293 cells, 50 μM test compound, 1 hour
Protocol: as §1, §2, §3
HIP samples prepared as described above were reconstituted in 100 μL of MeCN, vortex mixed and inverted multiple times to ensure all surfaces of the Eppendorf tube were rinsed with the MeCN and finally pulse centrifuged. […]

[3] = In vitro brain homogenate stability, rat; assay type: in vitro ADME; settings: for half-life at 1 μM: 37° C., test compound at 1 μM, read-out: Rat t1/2; for Clearance in brain homogenate stability study (in words): one hour incubation, increasing formation of Compound 2
Protocol: (§4) Fresh rodents brains were snap frozen immediately after collection and the assay performed on the same day. Brains were pre-incubated at 37° C. before being spiked with test compound at 1 μM. Samples were collected across 6 time points (0, 10, 20, 30, 45 and 60 minutes) and crashed in cold acetonitrile containing an internal standard (Leucine Enkephalin) and kept on ice until all samples had been collected. The samples were then shaken and centrifuged. 100 μL of supernatant was transferred to a plate containing 50 μL of MilliQ water and mixed. These plates were analyzed by LC-MS/MS over the 6 time points, where the percentage of test compound remaining was calculated using the peak area of the initial timepoint (T=0 minutes) as 100%. The natural log of the percentage remaining was then calculated. The natural log of the percentage remaining versus time (minutes) was plotted on a graph and the gradient of this graph was used to calculate the elimination rate constant (K), The half-life (t1/2) of test compound was calculated using the natural log of 2 divided by the elimination rate constant. The percentage of Compound 2 formed is reported below in Tables 4-6. FIGS. 9A-9F show results of the brain homogenate stability conducted with representative compounds of the Examples.

[4] = In vitro brain homogenate stability, mouse; assay type: in vitro ADME; settings: for half-life at 1 μM: 37° C., test compound at 1 μM, read-out: Mouse t1/2; for Clearance in brain homogenate stability study (in words): one hour incubation, increasing formation of Compound 2
Protocol: as §4

[5] = PO JVC rat terminal PK study at 20 mg/kg (tissue distribution); assay type: in vivo; settings: rat brain after Compound 3 at 20 mg/kg PO, before the more sensitive method
Protocol: Compound 3 was orally dosed at 20 mg/kg to a group of nine, jugular vein cannulated, individually housed male Sprague Dawley rats that were fasted overnight and fed 4 h post-dose to assess its tissue distribution profile. Dosing was performed with 5 mL/kg dosing volumes with 5% DMSO, 95% water used as a dosing vehicle. Terminal blood samples (>230 μL) were taken from groups of 3 animals at each of 3 time-points post dose (1 h, 2 h, and 4 h) by cardiac puncture under CO2 into heparinised Eppendorf tubes (containing 5 μL heparin) on ice containing an equal quantity of water. Two 100 μL aliquots were then placed in duplicate 96 well plates on dry ice. Immediately after blood sampling, brain and eye pair samples were excised, weighed, rinsed, blotted, and snap frozen in liquid N2. Samples were stored in the freezer at −20° C. until bioanalysis.
Tissue samples were weighed and a volume of water 3 times the mass added to samples before homogenization. In the case of eyeballs the lens could not be homogenized, but all other tissues homogenized. The resulting data (tissue distribution parameters) are shown below in Table 2.

[6] = Brain homogenate re-analysis for Compound 2 after PO Compound 3 at 20 mg/kg; assay type: in vivo; settings: after dosing Compound 3
Protocol: Re-analysis of the brain tissues harvested above (see Example 4) was conducted according to the following procedures and the data are shown in Table 3. • 1. 100 μL of brain homogenate was transferred to a 2 mL square matrix deep well plate, • 2. 300 μL acetonitrile (ACN) containing IS was dispensed on to the samples and mixed on a shaker. • 3. The samples were centrifuged for 15 min at 3500 rpm. • 4. 300 μL supernatant was transferred in to a fresh 2 mL square matrix deep well plate. • 5. Samples were concentrated using nitrogen then reconstituted in 80 μL of 50:50 ACN:MilliQ water and shaken on a plate shaker. • 6. Samples were then analyzed by LC-MS-MS.

SMILES	Transport via Mfsd2a: TLC band intensity in WT cells compared with D97A mutant Mfsd2a and/or empty vector cells [1]	Transport via Mfsd2a: concentration in HIP samples from WT cells compared with D97A mutant Mfsd2a and/or empty vector cells [2]	half-life at 1 μM [3] [h]	Clearance in brain homogenate stability study (in words) [3]	half-life at 1 μM [4] [h]	Clearance in brain homogenate stability study (in words) [4]	Detection of Compound 2 in brain tissues, first analysis [5]	Detection of Compound 2 in the brain, in-vivo rat CNS penetration data using Compound 3 [6]
CCCCC/C=C\C/C=C\C/C=C\C/C=C\CCCC(=O)NCCOP(=O)(O)OCCN [Compound 4, 2-ammonioethyl (2-((5Z,8Z,11Z,14Z)-icosa-5,8,11,14-tetraenamido)ethyl) phosphate]	transported via Mfsd2a	transported via Mfsd2a	1.27	demonstrated a level of clearance	2	demonstrated a level of clearance	–	–
CCCCC/C=C\C/C=C\C/C=C\C/C=C\CCCC(=O)NOC(C)(O)COP(=O)([O-])OCC[N+](C)(C)C (stereo not shown) [Compound 20, 2-hydroxy-2-(((5Z,8Z,11Z,14Z)-icosa-5,8,11,14-tetraenamido)oxy)propyl (2-(trimethylammonio)ethyl) phosphate]	cannot be confirmed if the compound is transported via Mfsd2a	transported via Mfsd2a	–	–	–	–	–	–
CCCCC/C=C\C/C=C\C/C=C\C/C=C\CCCC(=O)NCCOC(=O)OCCCOP(=O)([O-])OCC[N+](C)(C)C [Compound 7, 3-(((2-((5Z,8Z,11Z,14Z)-icosa-5,8,11,14-tetraenamido)ethoxy)carbonyl)oxy)propyl (2-(trimethylammonio)ethyl) phosphate]	transported via Mfsd2a	transported via Mfsd2a	–	–	–	–	–	–
CCCCC/C=C\C/C=C\C/C=C\C/C=C\CCCC(=O)NCCOC(=O)OCCOP(=O)([O-])OCC[N+](C)(C)C [Compound 6, 2-(((2-((5Z,8Z,11Z,14Z)-icosa-5,8,11,14-tetraenamido)ethoxy)carbonyl)oxy)ethyl (2-(trimethylammonio)ethyl) phosphate]	transported via Mfsd2a	transported via Mfsd2a	–	–	–	–	–	–
CCCCC/C=C\C/C=C\C/C=C\C/C=C\CCCC(=O)NCCOC(=O)NCCOP(=O)([O-])OCC[N+](C)(C)C [Compound 8, 2-(((2-((5Z,8Z,11Z,14Z)-icosa-5,8,11,14-tetraenamido)ethoxy)carbonyl)amino)ethyl (2-(trimethylammonio)ethyl) phosphate]	transported via Mfsd2a	transported via Mfsd2a	–	–	–	–	–	–
CCCCC/C=C\C/C=C\C/C=C\C/C=C\CCCC(=O)NCCOP(=O)(O)OCC(N)C(=O)O (stereo not shown) [Compound 5, 2-ammonio-2-carboxyethyl (2-((5Z,8Z,11Z,14Z)-icosa-5,8,11,14-tetraenamido)ethyl) phosphate]	transported via Mfsd2a	cannot be confirmed if the compound is transported via Mfsd2a	2.1	demonstrated a level of clearance	4.3	demonstrated a level of clearance	–	–
CCCCC/C=C\C/C=C\C/C=C\C/C=C\CCCC(=O)NCCO [Compound 2, (5Z,8Z,11Z,14Z)—N-(2-hydroxyethyl)icosa-5,8,11,14-tetraenamide, reference compound]	–	–	–	–	–	–	not detected above the lower limit of quantification	detected in the brain
